From patent US20060029743A1, “Wood preservatives and methods of wood preservation” (priority 2004, published 2006)
≈ marks a conversion by molar mass, not a printed value. Where two headings read alike, the source gives them in different places.

Assays:
Assay in all cases: 6-well plate assay, minimal inhibitory concentration
Type in all cases: cell-based
[1] = system: Antrodia vaillantii; conditions: for MIC: Fibroporia vaillantii, 168 h, read-out: Effectiveness at Inhibiting Wood-Rotting Fungi, BR3 (minimal inhibitory concentration)
Procedure: (§1) The minimal inhibitory concentration of fungicides against eight fungi was determined in 6-well microtiter plates. Minimal inhibitory concentration is defined as the lowest concentration at which no fungus growth is evident after seven days. A group of eight fungi were used in a screen to identify potential active ingredients to preserve wood. The eight fungi, their classification, and the growth media used to culture them are listed below:
(§2) Growth media were purchased from Difco (from Beckton Dickinson and Co., Sparks, Md.). The growth media were added to water to 2% w/v and autoclaved at 121° C. for 30 min. Autoclaved media were allowed to cool down to ˜50° C. Test chemicals were dissolved in DMSO (dimethyl sulfoxide) individually at 10 mg/mL to generate stock solutions. An appropriate amount of a stock solution was then added to the appropriate growth medium at 50° C. to make up the test media containing various concentrations of individual test chemicals. 10 mL of the medium was added to each well of a 6-well plate and allowed to solidify at room temperature. For each plate, the first well had no chemical, and the remaining five wells contained a particular test chemical at five different concentrations. Eight such plates were prepared for each chemical, using the eight media listed above for the eight test organisms.
(§3) After the media solidified and cooled, a plug (˜2 mm×2 mm) of agar growth medium with fresh grown mycelium from the appropriate fungal culture was used to inoculate each well. The plate was placed in an incubator, and the growth of the fungus monitored. After 4 to 7 days, the growth was scored manually.

[2] = system: Chaetomium globosum; conditions: for MIC: Chaetomium globosum, 168 h, read-out: Effectiveness at Inhibiting Wood-Rotting Fungi, SR1 (minimal inhibitory concentration)
Procedure: as §1, §2, §3

[3] = system: Gloeophyllum trabeum; conditions: for MIC: Gloeophyllum trabeum, 168 h, read-out: Effectiveness at Inhibiting Wood-Rotting Fungi, BR2 (minimal inhibitory concentration)
Procedure: as §1, §2, §3

[4] = system: Irpex lacteus; conditions: for MIC: Irpex lacteus, 168 h, read-out: Effectiveness at Inhibiting Wood-Rotting Fungi, WR2 (minimal inhibitory concentration)
Procedure: as §1, §2, §3

[5] = system: Phanerochaete chrysosporium; conditions: for MIC: Phanerodontia chrysosporium, 168 h, read-out: Effectiveness at Inhibiting Wood-Rotting Fungi, WR3 (minimal inhibitory concentration)
Procedure: as §1, §2, §3

[6] = system: Postia placenta; conditions: for MIC: Rhodonia placenta, 168 h, read-out: Effectiveness at Inhibiting Wood-Rotting Fungi, BR1 (minimal inhibitory concentration)
Procedure: as §1, §2, §3

[7] = system: Trametes versicolor; conditions: for MIC: Trametes versicolor, 168 h, read-out: Effectiveness at Inhibiting Wood-Rotting Fungi, WR1 (minimal inhibitory concentration)
Procedure: as §1, §2, §3

[8] = 6-well agar plate, lowest concentration with no growth after seven days

Compound	MIC [1, 8]	MIC [2, 8]	MIC [3, 8]	MIC [4, 8]	MIC [5, 8]	MIC [6, 8]	MIC [7, 8]	further results
Nc1nc(=O)[nH]cc1F [5-Fluorocytosine]	1 to 100 µg/mL (≈ 7.75 to 775 µM)	> 100 µg/mL	> 100 µg/mL	> 100 µg/mL	> 100 µg/mL	< 1 µg/mL	1 to 100 µg/mL (≈ 7.75 to 775 µM)	–
Oc1cccc2cccnc12 [8-Hydroxyquinoline]	–	–	–	–	–	–	–	MIC [1]: < 1 µg/mL; MIC [2]: > 100 µg/mL; MIC [3]: > 100 µg/mL; MIC [4]: 1 to 100 µg/mL (≈ 6.89 to 689 µM); MIC [5]: > 100 µg/mL; MIC [6]: 1 to 100 µg/mL (≈ 6.89 to 689 µM); MIC [7]: 1 to 100 µg/mL (≈ 6.89 to 689 µM)
CO/C=C(\C(=O)OC)c1ccccc1Oc1cc(Oc2ccccc2C#N)ncn1 [Axoxystrobin]	–	–	–	–	–	–	–	Effectiveness at Inhibiting Wood-Rotting Fungi, BR3 (minimal inhibitory concentration) [1, 8]: 1 (“1” indicates effective inhibition at 1 ppm or less); Effectiveness at Inhibiting Wood-Rotting Fungi, SR1 (minimal inhibitory concentration) [2, 8]: 3 (“3” indicates inhibition (if any) only at >100 ppm); Effectiveness at Inhibiting Wood-Rotting Fungi, BR2 (minimal inhibitory concentration) [3, 8]: 1 (“1” indicates effective inhibition at 1 ppm or less); Effectiveness at Inhibiting Wood-Rotting Fungi, WR2 (minimal inhibitory concentration) [4, 8]: 3 (“3” indicates inhibition (if any) only at >100 ppm); Effectiveness at Inhibiting Wood-Rotting Fungi, WR3 (minimal inhibitory concentration) [5, 8]: 3 (“3” indicates inhibition (if any) only at >100 ppm); Effectiveness at Inhibiting Wood-Rotting Fungi, BR1 (minimal inhibitory concentration) [6, 8]: 1 (“1” indicates effective inhibition at 1 ppm or less); Effectiveness at Inhibiting Wood-Rotting Fungi, WR1 (minimal inhibitory concentration) [7, 8]: 3 (“3” indicates inhibition (if any) only at >100 ppm)
CC(C)(C)C(O)C(Oc1ccc(Cl)cc1)n1cncn1 (stereo not shown) [Baytan]	–	–	–	–	–	–	–	Effectiveness at Inhibiting Wood-Rotting Fungi, BR3 (minimal inhibitory concentration) [1, 8]: 1 (“1” indicates effective inhibition at 1 ppm or less); Effectiveness at Inhibiting Wood-Rotting Fungi, SR1 (minimal inhibitory concentration) [2, 8]: 3 (“3” indicates inhibition (if any) only at >100 ppm); Effectiveness at Inhibiting Wood-Rotting Fungi, BR2 (minimal inhibitory concentration) [3, 8]: 1 (“1” indicates effective inhibition at 1 ppm or less); Effectiveness at Inhibiting Wood-Rotting Fungi, WR2 (minimal inhibitory concentration) [4, 8]: 1 (“1” indicates effective inhibition at 1 ppm or less); Effectiveness at Inhibiting Wood-Rotting Fungi, WR3 (minimal inhibitory concentration) [5, 8]: 1 (“1” indicates effective inhibition at 1 ppm or less); Effectiveness at Inhibiting Wood-Rotting Fungi, BR1 (minimal inhibitory concentration) [6, 8]: 2 (“2” indicates inhibition at about 1-100 ppm); Effectiveness at Inhibiting Wood-Rotting Fungi, WR1 (minimal inhibitory concentration) [7, 8]: 1 (“1” indicates effective inhibition at 1 ppm or less)
CCCCNC(=O)n1c(NC(=O)OC)nc2ccccc21 [Benomyl]	1 to 100 µg/mL (≈ 3.44 to 344 µM)	< 1 µg/mL	> 100 µg/mL	> 100 µg/mL	1 to 100 µg/mL (≈ 3.44 to 344 µM)	1 to 100 µg/mL (≈ 3.44 to 344 µM)	> 100 µg/mL	–
COC(=O)Nc1nc2ccccc2[nH]1 [Carbendazim]	1 to 100 µg/mL (≈ 5.23 to 523 µM)	< 1 µg/mL	> 100 µg/mL	1 to 100 µg/mL (≈ 5.23 to 523 µM)	1 to 100 µg/mL (≈ 5.23 to 523 µM)	1 to 100 µg/mL (≈ 5.23 to 523 µM)	> 100 µg/mL	–
CC1=C(C(=O)Nc2ccccc2)SCCO1 [Carboxin]	–	–	–	–	–	–	–	MIC [1]: < 1 µg/mL; MIC [2]: 1 to 100 µg/mL (≈ 4.25 to 425 µM); MIC [3]: < 1 µg/mL; MIC [4]: < 1 µg/mL; MIC [5]: < 1 µg/mL; MIC [6]: 1 to 100 µg/mL (≈ 4.25 to 425 µM); MIC [7]: < 1 µg/mL
CC(Cc1ccc(C(C)(C)C)cc1)CN1C[C@@H](C)O[C@@H](C)C1 (stereo partly shown) [Fenpropimorph]	1 to 100 µg/mL (≈ 3.3 to 330 µM)	> 100 µg/mL	< 1 µg/mL	1 to 100 µg/mL (≈ 3.3 to 330 µM)	1 to 100 µg/mL (≈ 3.3 to 330 µM)	< 1 µg/mL	1 to 100 µg/mL (≈ 3.3 to 330 µM)	–
CN(C)C(=S)[S-].CN(C)C(=S)[S-].CN(C)C(=S)[S-].[Fe+3] [Ferbam]	–	–	–	–	–	–	–	Effectiveness at Inhibiting Wood-Rotting Fungi, BR3 (minimal inhibitory concentration) [1, 8]: 2 (“2” indicates inhibition at about 1-100 ppm); Effectiveness at Inhibiting Wood-Rotting Fungi, SR1 (minimal inhibitory concentration) [2, 8]: 2 (“2” indicates inhibition at about 1-100 ppm); Effectiveness at Inhibiting Wood-Rotting Fungi, BR2 (minimal inhibitory concentration) [3, 8]: 3 (“3” indicates inhibition (if any) only at >100 ppm); Effectiveness at Inhibiting Wood-Rotting Fungi, WR2 (minimal inhibitory concentration) [4, 8]: 2 (“2” indicates inhibition at about 1-100 ppm); Effectiveness at Inhibiting Wood-Rotting Fungi, WR3 (minimal inhibitory concentration) [5, 8]: 2 (“2” indicates inhibition at about 1-100 ppm); Effectiveness at Inhibiting Wood-Rotting Fungi, BR1 (minimal inhibitory concentration) [6, 8]: 1 (“1” indicates effective inhibition at 1 ppm or less); Effectiveness at Inhibiting Wood-Rotting Fungi, WR1 (minimal inhibitory concentration) [7, 8]: 2 (“2” indicates inhibition at about 1-100 ppm)
O=[N+]([O-])c1cc(C(F)(F)F)c(Cl)c([N+](=O)[O-])c1Nc1ncc(C(F)(F)F)cc1Cl [Fluazinam]	< 1 µg/mL	< 1 µg/mL	< 1 µg/mL	1 to 100 µg/mL (≈ 2.15 to 215 µM)	1 to 100 µg/mL (≈ 2.15 to 215 µM)	< 1 µg/mL	1 to 100 µg/mL (≈ 2.15 to 215 µM)	–
O=[N+]([O-])c1c(Cl)c(Cl)c(Cl)c(Cl)c1Cl [Pentachloronitrobenzene]	–	–	–	–	–	–	–	MIC [1]: > 100 µg/mL; MIC [2]: < 1 µg/mL; MIC [3]: 1 to 100 µg/mL (≈ 3.39 to 339 µM); MIC [4]: > 100 µg/mL; MIC [5]: > 100 µg/mL; MIC [6]: 1 to 100 µg/mL (≈ 3.39 to 339 µM); MIC [7]: > 100 µg/mL
CCCN(CCOc1c(Cl)cc(Cl)cc1Cl)C(=O)n1ccnc1 [Prochloraz]	–	–	–	–	–	–	–	MIC [1]: 1 to 100 µg/mL (≈ 2.65 to 265 µM); MIC [2]: < 1 µg/mL; MIC [3]: > 100 µg/mL; MIC [4]: 1 to 100 µg/mL (≈ 2.65 to 265 µM); MIC [5]: 1 to 100 µg/mL (≈ 2.65 to 265 µM); MIC [6]: > 100 µg/mL; MIC [7]: 1 to 100 µg/mL (≈ 2.65 to 265 µM)
CCCC1COC(Cn2cncn2)(c2ccc(Cl)cc2Cl)O1 (stereo not shown) [Propiconazole]	< 1 µg/mL	< 1 µg/mL	< 1 µg/mL	< 1 µg/mL	< 1 µg/mL	< 1 µg/mL	< 1 µg/mL	–
CC(C)(C)C(O)(CCc1ccc(Cl)cc1)Cn1cncn1 (stereo not shown) [Tebuconazole]	< 1 µg/mL	1 to 100 µg/mL (≈ 3.25 to 325 µM)	< 1 µg/mL	< 1 µg/mL	< 1 µg/mL	< 1 µg/mL	< 1 µg/mL	–
c1ccc2[nH]c(-c3cscn3)nc2c1 [Thiabendazole]	> 100 µg/mL	< 1 µg/mL	> 100 µg/mL	> 100 µg/mL	> 100 µg/mL	> 100 µg/mL	> 100 µg/mL	–
CON=C(C(=O)OC)c1ccccc1CON=C(C)c1cccc(C(F)(F)F)c1 [Trifloxystrobin]	< 1 µg/mL	> 100 µg/mL	< 1 µg/mL	> 100 µg/mL	> 100 µg/mL	1 to 100 µg/mL (≈ 2.45 to 245 µM)	> 100 µg/mL	–
